Results on six molecules are retold here after publication PMC5413348, “Structure of Fam20A reveals a pseudokinase featuring a unique disulfide pattern and inverted ATP-binding” (eLife, 2017).

Data set [1] concerns the target T1, Fam20A (Homo sapiens, UniProt Q96MK3).
T1 construct: residues 69-529; secreted from Hi5 insect cells; N-terminal 6xHis-SUMO tag removed by TEV protease; dimer in crystal, concentration-dependent dimer/oligomer in solution
T1 sequence (Q96MK3 69-529): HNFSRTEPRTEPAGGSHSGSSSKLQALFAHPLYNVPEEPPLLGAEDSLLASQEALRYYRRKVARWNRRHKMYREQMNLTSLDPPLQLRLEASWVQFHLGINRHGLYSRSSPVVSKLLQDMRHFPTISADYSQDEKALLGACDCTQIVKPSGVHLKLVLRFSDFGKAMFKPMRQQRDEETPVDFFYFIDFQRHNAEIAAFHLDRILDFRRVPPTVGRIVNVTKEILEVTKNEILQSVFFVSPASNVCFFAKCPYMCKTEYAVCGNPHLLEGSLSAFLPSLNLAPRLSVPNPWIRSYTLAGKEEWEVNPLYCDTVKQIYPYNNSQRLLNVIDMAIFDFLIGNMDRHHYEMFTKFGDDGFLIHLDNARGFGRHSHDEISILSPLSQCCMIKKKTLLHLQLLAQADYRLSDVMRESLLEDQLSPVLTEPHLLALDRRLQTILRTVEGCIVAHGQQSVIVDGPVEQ
In words: thermal stability shift assay (SYPRO Orange). The note with it: 10 μM nucleotide; no metal ions; 20 mM HEPES pH 7.5, 100 mM NaCl. The data set is classed as binding.

The target of data set [2] is T2, Fam20A (Homo sapiens, UniProt Q96MK3, K223A).
T2 construct: residues 69-529; secreted from Hi5 insect cells; N-terminal 6xHis-SUMO tag removed by TEV protease; dimer in crystal, concentration-dependent dimer/oligomer in solution
T2 sequence (Q96MK3 69-529 K223A): T1 sequence (Q96MK3 69-529) with K155A
In words: thermal stability shift assay (SYPRO Orange). It is filed as binding. The note with it: 100 μM ATP; 20 mM HEPES pH 7.5, 100 mM NaCl.

For data set [3], the target named is T3, Fam20A (Homo sapiens, UniProt Q96MK3, D430A).
T3 construct: residues 69-529; secreted from Hi5 insect cells; N-terminal 6xHis-SUMO tag removed by TEV protease; dimer in crystal, concentration-dependent dimer/oligomer in solution
T3 sequence (Q96MK3 69-529 D430A): T1 sequence (Q96MK3 69-529) with D362A
In words: thermal stability shift assay (SYPRO Orange). The note with it: 100 μM ATP; 20 mM HEPES pH 7.5, 100 mM NaCl. It is filed as binding.

The target of data set [4] is T1, Fam20A. Kind of data set: thermal stability shift assay (SYPRO Orange), dTm vs concentration fit. The data set is classed as binding. The note with it: 20 mM HEPES pH 7.5, 100 mM NaCl.
Data set [5] deals with the molecule itself. In words: SEC; 1 mg or 100 µg purified Fam20A (both in 500 µl) on Superdex 200 increase 10/300 GL, 20 mM HEPES, pH 7.5, 100 mM NaCl.

Positions count from the first letter of the chain named. Like-named read-outs stand apart in the source and are kept apart here.

For `Nc1ccn([C@@H]2O[C@H](COP(=O)(O)OP(=O)(O)OP(=O)(O)O)[C@@H](O)[C@H]2O)c(=O)n1` [CTP], the ΔTm result in data set [1] is “Fam20A also binds other nucleoside triphosphates including GTP, CTP, and UTP”.

As to `Nc1nc2c(ncn2[C@@H]2O[C@H](COP(=O)(O)OP(=O)(O)OP(=O)(O)O)[C@@H](O)[C@H]2O)c(=O)[nH]1` [GTP], the ΔTm entry in data set [1] was “Fam20A also binds other nucleoside triphosphates including GTP, CTP, and UTP”.

With `Nc1ncnc2c1ncn2[C@@H]1O[C@H](COP(=O)(O)OP(=O)(O)OP(=O)(O)O)[C@@H](O)[C@H]1O` [ATP], the Tm entry in data set [2] and in data set [3] was “with Ala has little effect on the ability of Fam20A to bind ATP” in each case. For the same molecule, the Kd in data set [4] (no divalent cations, inverted orientation in crystal, read-out: Kd^app) worked out at 3 µM.

As for `O=c1ccn([C@@H]2O[C@H](COP(=O)(O)OP(=O)(O)OP(=O)(O)O)[C@@H](O)[C@H]2O)c(=O)[nH]1` [UTP], the ΔTm entry in data set [1] is “Fam20A also binds other nucleoside triphosphates including GTP, CTP, and UTP”.

Consider `Nc1ncnc2c1ncn2[C@@H]1O[C@H](COP(=O)(O)OP(=O)(O)O)[C@@H](O)[C@H]1O` [ADP], for which, in data set [4] (no cations), the Kd entry is recorded as “Fam20A prefers binding ATP over ADP (Figure 2D)”.

B1: Human Fam20A residues 69–529 (domain or fragment, UniProt Q96MK3 69-529, looked up)
chain: T1 sequence (Q96MK3 69-529)
notes: Fam20A, human, residues 69-529, secreted from a modified pI-secSUMOstar vector; the 6xHis-SUMO tag was removed by TEV protease; The only purified Fam20A construct that the methods describe; also called untagged Fam20A; purified Fam20A; source: Hi5 insect cells (baculovirus), conditioned medium, purified (Ni-NTA, Resource Q, Superdex 200); not shown: 6xHis, N-terminal, cleaved; SUMO, N-terminal, …
Take B1: in data set [5], the binding result was “binds”.
